Measurements published in US11566007B2, “Ras inhibitors” (Revolution Medicines, Inc., priority 2019, dated 2023).
Values joined by “and” are separate entries in the source; they are usually repeats but may differ in a detail not shown here. Equal entries are not always repeated. Where two headings read alike, the source gives them in different places.

What was measured:
[1] = test system: NCI-H358 cells (K-Ras G12C); experiment: Potency assay: pERK in NCI-H358 cells; assay type: cell-based, human; conditions: Homo sapiens, NCI-H358; H358 KRAS G12C; read-out: pERK EC50
Outline: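 pERK decrease read by AlphaLISA SureFire p-ERK1/2 or In-Cell Western after 4 h compound exposure at 37 °C, 5% CO2.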

NCI-H358 (K-Ras G12C) = experiment: CellTiter-Glo cell viability assay, NCI-H358; assay type: cell-based, human; conditions: NCI-H358, 5-day treatment
Outline: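 Cells seeded, compound added directly, 5-day exposure. Plates to RT ~30 min, CellTiter-Glo luminescence read. Normalized to DMSO avg (x100); 4-parameter logistic fit.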

K-Ras G12C = K-Ras G12C (Homo sapiens (Human), UniProt P01116+P62937, G12C); experiment: Ras-Raf (BRAF RBD) disruption / FRET / MOA assay, KRAS G12C; assay type: biochemical
Outline: (§1)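 A 10-point, 3-fold dilution series topping at 30 μM final was incubated 3 h at 25° C with the Ras/cyclophilin A/BRAF RBD mixture.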

K-Ras G13C = K-Ras G13C (Homo sapiens (Human), UniProt P01116+P62937, G13C); experiment: Ras-Raf (BRAF RBD) disruption / FRET / MOA assay, KRAS G13C; assay type: biochemical
Outline: as §1

KRAS G12S = KRAS G12S (Homo sapiens (Human), UniProt P01116+P62937, G12S); experiment: Ras-Raf (BRAF RBD) disruption / FRET / MOA assay, KRAS G12S; assay type: biochemical; conditions: Ras-Raf disruption/FRET/MOA assay; class symbols; read-out: KRAS G12S FRET data IC50
Outline: as §1

KRAS G12D = KRAS G12D (Homo sapiens (Human), UniProt P01116+P62937, G12D); experiment: Ras-Raf (BRAF RBD) disruption / FRET / MOA assay, KRAS G12D; assay type: biochemical; conditions: Ras-Raf disruption/FRET/MOA assay; class symbols; read-out: KRAS G12D FRET data IC50
Outline: as §1

KRAS G12V = KRAS G12V (Homo sapiens (Human), UniProt P01116+P62937, G12V); experiment: Ras-Raf (BRAF RBD) disruption / FRET / MOA assay, KRAS G12V; assay type: biochemical; conditions: read-out: IC50* KRAS G12V FRET data
Outline: as §1

KRAS WT = KRAS WT (Homo sapiens (Human), UniProt P01116+P62937); experiment: Ras-Raf (BRAF RBD) disruption / FRET / MOA assay, KRAS WT; assay type: biochemical; conditions: read-out: IC50* KRAS WT FRET data
Outline: as §1

KRAS G13D = KRAS G13D (Homo sapiens (Human), UniProt P01116+P62937, G13D); experiment: Ras-Raf (BRAF RBD) disruption / FRET / MOA assay, KRAS G13D; assay type: biochemical; conditions: read-out: IC50* KRAS G13D FRET data
Outline: as §1

NRAS G12C = NRAS G12C (Homo sapiens (Human), UniProt P01111+P62937, G12C); experiment: Ras-Raf (BRAF RBD) disruption / FRET / MOA assay, NRAS G12C; assay type: biochemical; conditions: read-out: IC50* NRAS G12C FRET data
Outline: as §1

[2] = Homo sapiens, NCI-H358, 120 h, class symbols, read-out: Additional H358 Cell Viability assay data (K-Ras G12C, IC50)
[3] = KRAS G12C, Ras-Raf disruption/FRET/MOA assay, read-out: IC50* KRAS G12C FRET data
[4] = KRAS G13C, Ras-Raf disruption/FRET/MOA assay, read-out: IC50* KRAS G13C FRET data
[5] = class symbols, read-out: Additional H358 Cell Viability assay data (K-Ras G12C, IC50)

Sequence of KRAS WT (P01116-2 other isoform, or with tags, fused parts or gaps): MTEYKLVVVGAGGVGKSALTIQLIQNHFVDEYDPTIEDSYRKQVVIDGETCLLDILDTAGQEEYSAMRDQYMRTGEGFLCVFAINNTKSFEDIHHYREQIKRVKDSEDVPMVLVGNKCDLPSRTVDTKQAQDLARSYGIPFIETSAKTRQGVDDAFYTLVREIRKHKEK
Sequence of KRAS WT (P62937 whole entry): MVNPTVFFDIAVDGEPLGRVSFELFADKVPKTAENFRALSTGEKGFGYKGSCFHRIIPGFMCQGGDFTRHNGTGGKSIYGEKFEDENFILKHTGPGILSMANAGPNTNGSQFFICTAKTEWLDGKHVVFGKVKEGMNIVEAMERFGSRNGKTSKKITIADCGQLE
Sequence of KRAS G12V (P01116-2 other isoform, or with tags, fused parts or gaps G12V): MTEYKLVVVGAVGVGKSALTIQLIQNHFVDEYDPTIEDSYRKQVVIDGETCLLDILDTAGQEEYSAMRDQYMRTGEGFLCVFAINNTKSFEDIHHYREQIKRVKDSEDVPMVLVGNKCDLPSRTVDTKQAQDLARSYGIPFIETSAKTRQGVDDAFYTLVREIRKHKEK
Sequence of KRAS G12V (P62937 whole entry): as the sequence (P62937 whole entry) above
Sequence of K-Ras G13C (P01116-2 other isoform, or with tags, fused parts or gaps G13C): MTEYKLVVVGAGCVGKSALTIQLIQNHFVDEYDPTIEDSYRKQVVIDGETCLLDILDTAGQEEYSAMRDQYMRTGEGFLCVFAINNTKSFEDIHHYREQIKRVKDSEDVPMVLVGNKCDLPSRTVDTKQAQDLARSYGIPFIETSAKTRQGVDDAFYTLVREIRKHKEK
Sequence of K-Ras G13C (P62937 whole entry): as the sequence (P62937 whole entry) above
Sequence of KRAS G12S (P01116-2 other isoform, or with tags, fused parts or gaps G12S): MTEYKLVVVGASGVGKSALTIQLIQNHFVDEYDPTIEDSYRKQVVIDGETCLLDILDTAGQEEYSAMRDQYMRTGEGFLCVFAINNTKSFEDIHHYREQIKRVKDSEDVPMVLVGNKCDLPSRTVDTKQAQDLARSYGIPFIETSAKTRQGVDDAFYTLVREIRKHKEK
Sequence of KRAS G12S (P62937 whole entry): as the sequence (P62937 whole entry) above
Sequence of NRAS G12C (P01111 whole entry G12C): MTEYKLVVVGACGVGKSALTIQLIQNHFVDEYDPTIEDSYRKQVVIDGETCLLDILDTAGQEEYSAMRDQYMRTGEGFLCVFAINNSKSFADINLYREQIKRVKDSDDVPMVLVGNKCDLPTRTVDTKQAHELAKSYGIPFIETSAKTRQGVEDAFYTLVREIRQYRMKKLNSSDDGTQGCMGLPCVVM
Sequence of NRAS G12C (P62937 whole entry): as the sequence (P62937 whole entry) above
Sequence of KRAS G12D (P01116-2 other isoform, or with tags, fused parts or gaps G12D): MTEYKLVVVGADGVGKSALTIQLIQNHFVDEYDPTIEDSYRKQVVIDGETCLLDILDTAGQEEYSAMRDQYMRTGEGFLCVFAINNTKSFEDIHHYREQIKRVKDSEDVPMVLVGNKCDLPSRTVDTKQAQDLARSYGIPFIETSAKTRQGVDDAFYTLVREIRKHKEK
Sequence of KRAS G12D (P62937 whole entry): as the sequence (P62937 whole entry) above
Sequence of K-Ras G12C (P01116-2 other isoform, or with tags, fused parts or gaps G12C): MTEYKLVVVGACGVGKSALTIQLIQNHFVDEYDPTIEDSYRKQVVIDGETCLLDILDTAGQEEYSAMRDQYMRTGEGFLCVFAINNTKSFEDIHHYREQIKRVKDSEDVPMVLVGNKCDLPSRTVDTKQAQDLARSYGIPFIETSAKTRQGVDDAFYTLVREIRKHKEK
Sequence of K-Ras G12C (P62937 whole entry): as the sequence (P62937 whole entry) above
Sequence of KRAS G13D (P01116-2 other isoform, or with tags, fused parts or gaps G13D): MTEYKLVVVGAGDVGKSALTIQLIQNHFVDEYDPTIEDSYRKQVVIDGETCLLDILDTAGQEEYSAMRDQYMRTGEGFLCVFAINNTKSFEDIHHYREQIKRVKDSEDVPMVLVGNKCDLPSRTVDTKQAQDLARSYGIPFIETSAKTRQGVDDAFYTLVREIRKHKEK
Sequence of KRAS G13D (P62937 whole entry): as the sequence (P62937 whole entry) above

SMILES | EC50 [1] | IC50 (NCI-H358 (K-Ras G12C); [2]) | IC50 (K-Ras G12C; [3]) | IC50 (K-Ras G13C; [4]) | IC50 (KRAS G12S) | IC50 (KRAS G12D) | IC50 (KRAS G12V) | IC50 (KRAS WT) | IC50 (KRAS G13D) | IC50 (NRAS G12C) | IC50 (NCI-H358 (K-Ras G12C); [5]) | IC50 (NCI-H358 (K-Ras G12C); Homo sapiens, NCI-H358, 120 h, read-out: H358 Cell Viability (K-Ras G12C) IC50) | IC50 (K-Ras G12C; with Cyclophilin A, BRAF RBD, read-out: FRET (K-Ras G12C) IC50) | IC50 (K-Ras G13C; with Cyclophilin A, BRAF RBD, read-out: FRET (K-Ras G13C) IC50)
CCn1c(-c2ccccc2CN(C)C)c2c3cc(ccc31)-c1cc(O)cc(c1)C[C@H](NC(=O)[C@H](C(C)C)N(C)C(=O)c1ncc(NC(=O)/C=C/CN(C)C)s1)C(=O)N1CCC[C@H](N1)C(=O)OCC(C)(C)C2 (atropisomer, axis not shown) [Example A163] | < 5 µM | > 1000 nM | 1000 to 10000 nM | 10 to 100 nM | > 10000 nM | 1 to 10 µM | > 10000 nM | 1 to 10 µM | 1 to 10 µM | 1000 to 10000 nM |  |  |  | 
CC#CC(=O)N1CC[C@H](C(=O)N(C)[C@H](C(=O)N[C@H]2Cc3cccc(c3)-c3ccc4c(c3)c(c(-c3cccnc3[C@H](C)OC)n4CC)CC(C)(C)COC(=O)[C@@H]3CCCN(N3)C2=O)C(C)C)C1 (atropisomer, axis not shown) [Example A173] | < 5 µM | 10 to 100 nM | 100 to 1000 nM | > 10000 nM | 1000 to 10000 nM | > 10 µM | 1000 to 10000 nM | > 10 µM | > 10 µM | 100 to 1000 nM |  |  |  | 
CCn1c(-c2cncnc2[C@H](C)OC)c2c3cc(ccc31)-c1cc(O)cc(c1)C[C@H](NC(=O)[C@H](C(C)C)N(C)C(=O)[C@H]1CCN(C(=O)C#CCN3CCOCC3)C1)C(=O)N1CCC[C@H](N1)C(=O)OCC(C)(C)C2 (atropisomer, axis not shown) [Example A182] | < 5 µM | 10 to 100 nM | 10 to 100 nM and < 10 nM | 10 to 100 nM and 1000 to 10000 nM | 100 to 1000 nM and 1000 to 10000 nM | 1 to 10 µM and > 10 µM | 100 to 1000 nM and 1000 to 10000 nM | 0.1 to 1 µM and 1 to 10 µM | 0.1 to 1 µM and 1 to 10 µM | 10 to 100 nM and < 10 nM | < 10 nM |  |  | 
CCn1c(-c2cccnc2[C@H](C)OC)c2c3cc(ccc31)-c1csc(n1)C[C@H](NC(=O)[C@H](C(C)C)N(C)C(=O)[C@H]1CCN(C(=O)C#CCN3CCOCC3)C1)C(=O)N1CCC[C@H](N1)C(=O)OCC(C)(C)C2 (atropisomer, axis not shown) [Example A186] | < 5 µM |  | 10 to 100 nM and 1000 to 10000 nM | > 10000 nM and 1000 to 10000 nM | 1000 to 10000 nM and > 10000 nM | > 10 µM | 1000 to 10000 nM and > 10000 nM | > 10 µM | > 10 µM | 10 to 100 nM and 1000 to 10000 nM |  | 5 nM | 38 nM | 940 nM
CO[C@@H](C)c1ncccc1-c1c2c3cc(ccc3n1C)-c1cccc(c1)C[C@H](NC(=O)[C@H](C(C)C)N(C)C(=O)[C@H]1CCN(C(=O)C#CCN3CCOCC3)C1)C(=O)N1CCC[C@H](N1)C(=O)OCC(C)(C)C2 (atropisomer, axis not shown) [Example A192] | < 5 µM | 100 to 1000 nM | 100 to 1000 nM and 1000 to 10000 nM | > 10000 nM | > 10000 nM | > 10 µM | > 10000 nM | > 10 µM | > 10 µM | 100 to 1000 nM and 1000 to 10000 nM |  |  |  | 
C=CC(=O)N1CC[C@H](C(=O)N(C)[C@H](C(=O)N[C@H]2Cc3cc(O)cc(c3)-c3ccc4c(c3)c(c(-c3cnccc3[C@H](CC)OC)n4CC)CC(C)(C)COC(=O)[C@@H]3CCCN(N3)C2=O)C(C)C)C1 (atropisomer, axis not shown) [Example A194] | < 5 µM | 10 to 100 nM | 100 to 1000 nM and < 10 nM | 10 to 100 nM and 1000 to 10000 nM | 100 to 1000 nM and 10 to 100 nM | 1 to 10 µM and 0.1 to 1 µM | 100 to 1000 nM and 10 to 100 nM | 1 to 10 µM and 0.01 to 0.1 µM | 0.1 to 1 µM and 1 to 10 µM | 100 to 1000 nM and < 10 nM | < 10 nM |  |  | 
C=CC(=O)N1CC[C@H](C(=O)N(C)[C@H](C(=O)N[C@H]2Cc3cccc(c3)-c3ccc4c(c3)c(c(-c3cc(CN(C)C)cnc3[C@H](C)OC)n4CC)CC(C)(C)COC(=O)[C@@H]3CCCN(N3)C2=O)C(C)C)C1 [Example A523] |  | 100 to 1000 nM | 1000 to 10000 nM | > 10000 nM | > 10000 nM | > 10 µM | > 10000 nM | > 10 µM | > 10 µM | 1000 to 10000 nM |  |  |  | 
